Laboratory results from patent publication US7071165B2, “LHRH antagonist peptides” (Indiana University Research and Technology Corporation, priority 1995, dated 2006).

test system: ovulation in female rats; experiment: Anti-ovulatory activity (AOA) in vivo assay in rats; set-up: species or system rat; conditions: dose 1 μg per rat
Method: As used herein, “LHRH antagonist peptide” is intended to include peptides and peptide analogs which inhibit LHRH activity (i.e., has “LHRH antagonist activity”) in vivo or in vitro. Candidate LHRH antagonist peptides can be assayed, for example, in the animal model described in Corbin and Beattie, Endocrine Res. Commun. 2:1 (1975) (and see infra). In this assay, the LHRH antagonistic activity of a candidate compound is assayed by measuring the antiovulatory activity (AOA) of the compound in rats.
Anti-ovulatory activity (AOA) was measured by an in vivo assay in rats, as described in Corbin and Beattie, Endocrine Res. Commun. 2:1 (1975). In brief, female rats are injected with a candidate LHRH antagonist on the day of proestrus; in general, the candidate LHRH antagonist was dissolved in 0.1% DMSO. The ability of the candidate peptide to inhibit ovulation is measured by determining the number of rats which ovulate. A candidate peptide is considered to have LHRH antagonist qualities if it inhibits ovulation in at least 50% of the treated rats at a dose of 5 μg per rat. Preferred LHRH antagonists inhibit ovulation in at least 50% of rats at a dose of 2 μg per rat, more preferably at a dose of […], and still more preferably at a dose of 0.5 μg per rat.

Row | Substance | AO activity (AOA): rats which ovulate / rats treated
1 | Ac-D-Qal^1, 4-Cl-D-Phe^2, D-Pal^3, D-Lys(Dodac)^6, Lys(iPr)^8, D-Ala^10-LHRH.TFA [Compound 3742] | 6/8@1.0
2 | Ac-D-Nal^1, 4-Cl-D-Phe^2, D-Pal^3, Lys(TFAc)^6, Lys(iPr)^8, D-Ala^10-LHRH.2TFA [Compound 3546] | 6/8@1 μg
3 | Ac-D-Nal^1, 4-Cl-D-Phe^2, D-Pal^3, Pal^5, D-Cit^6, Lys(iPr)^8, D-Ala^10-LHRH.TFA [Compound 3432] | 7/8@1 μg
4 | Ac-D-Qal^1, 4-Cl-D-Phe^2, D-Pal^3, D-Lys(Otac)^6, Lys(iPr)^8, D-Ala^10-LHRH.TFA [Compound 3802] | 5/8@1.0
5 | Ac-D-Nal^1, 4-Cl-D-Phe^2, D-Pal^3, Asn^4, Tyr^5, D-Cit^6, Lys(iPr)^8, D-Ala^10-LHRH.TFA [Compound 3434] | 4/8@1 μg
6 | Ac-D-Nal^1, 4-Cl-D-Phe^2, D-Pal^3, Cit^5, D-Pal^6, Lys(iPr)^8, D-Ala^10-LHRH.TFA [Compound 3433] | 5/8@1 μg
7 | Ac-D-Nal^1, 4-Cl-D-Phe^2, D-Pal^3, D-HomoArg(NO2)^6, Lys(iPr)^8, D-Ala^10-LHRH.TFA [Compound 3436] | 7/8@1 μg
8 | Ac-D-Qal^1, 4-Cl-D-Phe^2, D-Pal^3, D-Lys(Imdac)^6, Lys(iPr)^8, D-Ala^10-LHRH.TFA [Compound 3800] | 7/8@1.0
9 | Ac-D-Nal^1, 4-Cl-D-Phe^2, D-Pal^3, Ser^5, D-Pal(iPr)^6, Lys(iPr)^8, D-Ala^10-LHRH.2TFA [Compound 3743] | 8/8@1.0
10 | Ac-D-Nal^1, 4-Cl-D-Phe^2, D-Pal^3, D-Met(S^+CH2COPh)^6, D-Ala^10-LHRH.2TFA [Compound 3968] | 4/8@1.00
11 | Ac-D-Nal^1, 4-Cl-D-Phe^2, D-Trp^3, D-Met(S^+CH2—CH═CH2)^6, D-Ala^10-LHRH.2TFA [Compound 3984] | 3/8@1.00
12 | Ac-D-Nal^1, 4-Cl-D-Phe^2, D-Pal^3, D-Lys(Glycolyl)^6, Lys(iPr)^8, D-Ala^10-LHRH.TFA [Compound 3437] | 7/8@1 μg
13 | Ac-D-Nal^1, 4-Cl-D-Phe^2, D-Pal^3, D-Lys(2-ClNic)^6, Lys(iPr)^8, D-Ala^10-LHRH.TFA [Compound 3441] | 8/8@1 μg
14 | Ac-D-Qal^1, 4-Cl-D-Phe^2, D-Pal^3, D-Lys(pGlu)^6, Lys(iPr)^8, D-Ala^10-LHRH.TFA [Compound 3723] | 7/8@1.0
15 | Ac-D-Nal^1, 4-Cl-D-Phe^2, D-Pal^3, Lys(Otac)^5, D-Lys(Otac)^6, Lys(iPr)^8, D-Ala^10-LHRH.TFA [Compound 3502] | 6/8@1 μg
16 | Ac-D-Nal^1, 4-Cl-D-Phe^2, D-Pal^3, D-Arg^6, Met^8, D-Ala^10-LHRH.TFA [Compound 3995] | 5/8@1.00
17 | Ac-D-Nal^1, 4-Cl-D-Phe^2, D-Pal^3, D-Dap(COCH2S^+Me2)^6, D-Ala^10-LHRH.2TFA [Compound 3969] | 3/8@1.00
18 | Ac-D-Nal^1, C^αMe-4Cl-Phe^2, D-Pal^3, N^αMe-Tyr^5, D-Pal(iPr)^6, Lys(iPr)^8, D-Ala^10-LHRH.TFA [Compound 3541] | 1/8@1 μg
19 | Ac-N^αMe-D-Nal^1, 4-Cl-D-Phe^2, D-Pal^3, D-Cit^6, Lys(iPr)^8, D-Ala^10-LHRH.TFA [Compound 3442] | 7/8@1 μg
20 | Ac-D-Nal^1, 4-Cl-D-Phe^2, D-Pal^3, Lys(iPr)^5, D-Lys(4HBc)^6, Lys(iPr)^8, D-Ala^10-LHRH.2TFA [Compound 3745] | 6/8@1.0

Row | Substance | AO activity (AOA): rats which ovulate / rats treated
21 | Ac-Sar^1, 4-Cl-D-Phe^2, 1-1-Nal^3, D-Pal(Bzl)^6, Lys(iPr)^8,D-Ala^10-LHRH.2TFA [Compound 3769] | 6/8@1.0
22 | Ac-D-Nal^1, 4-Cl-D-Phe^2, D-Pal^3, Cit^5, D-Pal(iPr)^6, Lys(iPr)^8, D-Ala^10-LHRH.TFA [Compound 3435] | 7/8@1 μg
23 | Ac-D-Qal^1, 4-Cl-D-Phe^2, D-Pal^3, D-Lys(Ppic)^6, Lys(iPr)^8, D-Ala^10-LHRH.TFA [Compound 3787] | 7/8@1.0
24 | Ac-D-Nal^1, 4-Cl-D-Phe^2, D-Pal^3, His^5D-Pal(iPr)^6, Lys(iPr)^8, D-Ala^10-LHRH.2TFA [Compound 3754] | 5/8@1.0
25 | Ac-D-Qal^1, 4-Cl-D-Phe^2, D-Pal^3, D-Lys(Ac)^6, Lys(iPr)^8, D-Ala^10-LHRH.TFA [Compound 3740] | 6/8@1.0
26 | Ac-D-Nal^1, 4-Cl-D-Phe^2, D-Pal^3, D-Lys(Orotic)^6, Lys(iPr)^8, D-Ala^10-LHRH.TFA [Compound 3762] | 6/8@1.0
27 | Ac-D-Nal^1, 4-Cl-D-Phe^2, D-Pal^3, D-Glu(Amp)^6, Lys(iPr)^8, D-Ala^10-LHRH.TFA [Compound 3511] | 7/8@1 μg
28 | Ac-D-Nal^1, 4-Cl-D-Phe^2, D-Trp^3, D-Arg^6, Met^8, D-Ala^10-LHRH.TFA [Compound 3880] | 8/8@1.0
29 | Ac-D-Nal^1, 4-Cl-D-Phe^2, D-Pal^3, N-Me-Ala^5, D-Pal(iPr)^6, Lys(iPr)^8, D-Ala^10-LHRH.2TFA [Compound 3757] | 7/8@1.0
30 | Ac-D-Nal^1, 4-Cl-D-Phe^2, D-Pal^3, D-Lys(Dodac)^6, Lys(iPr)^8, D-Ala^10-LHRH.TFA [Compound 3803] | 2/8@1.0
31 | Ac-D-Nal^1, 4-Cl-D-Phe^2, D-Trp^3, D-Met^6, D-Ala^10-LHRH.TFA [Compound 3881] | 7/8@1.0
32 | Ac-D-Nal^1, 4-Cl-D-Phe^2, D-Pal^3, D-Lys(iPrNic)^5, D-Lys(iPrNic)^6, Lys(iPr)^8, D-Ala^10-LHRH.TFA [Compound 3553] | 8/8@1 μg
33 | Ac-D-Qal^1, 4-Cl-D-Phe^2, D-Pal^3, D-Lys(Gulonyl)^6, Lys(iPr)^8, D-Ala^10-LHRH.TFA [Compound 3785] | 7/8@1.0
34 | Ac-D-Nal^1, 4-Cl-D-Phe^2, D-Pal^3, Lys(Nic)^5, D-Pal(Bzl)^6, Lys(iPr)^8, D-Ala^10-LHRH.3TFA [Compound 3547] | 6/8@1 μg
35 | Ac-D-Nal^1, 4-Cl-D-Phe^2, D-Pal^3, Lys(Pyz)^5, D-Lys(Pyz)^6, Lys(iPr)^8, D-Ala^10-LHRH.TFA [Compound 3504] | 4/8@1 μg
36 | Ac-D-Nal^1, 4-Cl-D-Phe^2, D-Pal^3, Asn^5, D-Pal(iPr)^6, Lys(iPr)^8, D-Ala^10-LHRH.2TFA [Compound 3744] | 7/8@1.0
37 | Ac-D-Nal^1, 4-Cl-D-Phe^2, D-Pal^3, D-Glu^6, Lys(iPr)^8, D-Ala^10-LHRH.TFA [Compound 3552] | 8/8@1 μg
38 | Ac-Sar^1, 4-Cl-D-Phe^2, D-1-Nal^3, D-Pal(iPr)^6, Lys(iPr)^8, D-Ala^10-LHRH.2TFA [Compound 3772] | 8/8@1.0
39 | Ac-D-Nal^1, 4-Cl-D-Phe^2, D-Pal^3, Lys(ONic)^5, D-Lys(ONic)^6, Lys(iPr)^8, D-Ala^10-LHRH.TFA [Compound 3503] | 6/8@1 μg
40 | Ac-D-Nal^1, 4-Cl-D-Phe^2, D-Pal^3, D-Lys(Gulonyl)^6, Lys(iPr)^8, D-Ala^10-LHRH.TFA [Compound 3506] | 4/8@1 μg

same assay, conditions: dose 2 μg per rat

Row | Substance | AO activity (AOA): rats which ovulate / rats treated
41 | Ac-D-Nal^1, 4-Cl-D-Phe^2, D-Pal^3, D-Glu(PEG)^6, Lys(iPr)^8, D-Ala^10-LHRH.2TFA [Compound 3542] | 7/8@2 μg

same assay, conditions: dose 5 μg per rat

Row | Substance | AO activity (AOA): rats which ovulate / rats treated
42 | Ac-D-Nal^1, 4-Cl-D-Phe^2, D-Pal^3, Arg^5, D-His^6, Trp^7, Orn^8, D-Ala^10-LHRH.TFA [Compound 3854] | 6/8@5.0
43 | Ac-D-(or L)-9-anthryl-Ala^1, 4-Cl-D-Phe^2, D-Pal^3, D-Cit^6-Lys(iPr)^8, D-Ala^10-LHRH.TFA [Compound 3366] | 6/8@5 μg
44 | Ac-D-Nal^1, 4-Cl-D-Phe^2, D-Pal^3, Lys(iPr)^5, D-His^6, Trp^7, Orn^8, D-Ala^10-LHRH.TFA [Compound 3852] | 8/8@5.0
45 | Ac-D-Nal^1, 4-Cl-D-Phe^2, D-Pal^3, His^5, D-Arg^6, Trp^7, Orn^8, D-Ala^10-LHRH.TFA [Compound 3853] | 0/8@5.0

same assay, conditions: dose 50 μg per rat

Row | Substance | AO activity (AOA): rats which ovulate / rats treated
46 | Lys(COCH2Br)^8-LHRH [Compound 3942] | 8/8@50.0
47 | Met(S^+Me)^8-LHRH.TFA [Compound 3941] | 8/8@50.0

same assay, conditions: rat, in vivo

Row | Substance | AO activity (AOA), in words
48 | Ac-D-Nal^1, 4-Cl-D-Phe^2, D-Pal^3, D-Lys(COCH2CH2N(Et)2)^6, D-Ala^10-LHRH.2TFA [Compound 3949] | low activity
